Data reported in patent publication US10058562B2, “Methods of treatment of diseases” (Ampio Pharmaceuticals, Inc., priority 2012, dated 2018).
Like-named read-outs stand apart in the source and are kept apart here.

How the values were obtained:
[1] = tested on: human retinal endothelial cells; assay: ECIS resistance (Example 14); conditions: for persistence of ECIS increase: danazol 1.0 μM, S1P 1 μM, alone or in combination
Experimental: (§1) Electrical resistance was measured using the electric cell-substrate impedance sensing (ECIS) system (ECISZθ, obtained from Applied Biophysics) with 8-well multiple electrode plates (8W10E). […] The fibronectin solution was removed, and 400 μl of EGM-2 culture medium (Lonza) was added to each well. The plates were connected to the ECISZθ system and were electrically stabilized. The EGM-2 medium was aspirated and replaced with 200 μl of EGM-2 culture medium containing 100,000 cells per well. […] The EGM-2 medium was aspirated and replaced with 400 μl of fresh EGM-2 culture medium per well. […] Concentrated solutions of the test compounds in HBSS were prepared and placed in the incubator to equilibrate. […] ECIS (resistance) was monitored for 90 hours.

[2] = tested on: human renal glomerular microvascular endothelial cells; assay: Actin stress fiber formation (Example 13); conditions: for F-actin staining, agent alone: TNFα 1 ng/ml or S1P 1 μM alone, over the time course; for F-actin staining, danazol alone: 1 μM
[3] = tested on: human retinal endothelial cells; assay: Actin stress fiber formation (Example 13); conditions: for F-actin staining, agent alone: TNFα 1 ng/ml or S1P 1 μM alone, over the time course; for F-actin staining, danazol alone: 1 μM
[4] = tested on: patients with diabetic macular edema (DME); assay type: in vivo, human
Description: Included were patients with DME and a central subfield retinal thickness of 300 μm or greater. A total of 34 patients constituted the safety set population. The efficacy evaluable population (n=23) was composed of patients from the safety set who completed 80% or greater of study medications at 4 weeks of treatment. The primary endpoint was change in central subfield retinal thickness from baseline to 12 weeks of treatment, and the secondary endpoints were change from baseline in retinal volume and Early Treatment Diabetic Retinopathy Study (ETDRS) best corrected visual acuity (BCVA) at week 12 of treatment. […] All treatments were administered orally twice a day.

[5] = tested on: Primary human umbilical vein endothelial cells (HUVECs); assay: HUVEC cell proliferation (Celltiter 96 AQueous One); assay type: cell-based
Experimental: Primary human umbilical vein endothelial cells (HUVECs) and EGM-2 growth medium were obtained from Cambrex (Walkersville, Md.). The cells were passaged in medium supplemented with 2% fetal calf serum (FCS) in tissue culture flasks at 37° C. and 5% CO2. Subculturing was performed using trypsin when 60-80% confluence was obtained as specified by the supplier.
Cryopreserved ampoules of passage 2 HUVECs were thawed and plated in 96 well tissue culture plates at 5,000 cells/cm^2. […] . In short, medium was aspirated from each well and the cells were washed with 200 μl […] (HBSS) from Cambrex warmed to 37° C. 100 μl diluted celltiter solution (15 μl stock+85 μl EGM-2 containing 0.1% FCS) were added to each well and incubated for an additional 4 hours. Optical density was determined by microplate reader using a 530 nm filter after blank subtraction and data presented as OD±standard deviation. The final concentration of ethanol in the wells was less then 0.2% and had no effect on cell proliferation or viability.
All data are presented as representative experiments done in triplicate. […] P<0.05 was considered statistically significant.

[6] = tested on: human retinal endothelial cells; assay: Actin stress fiber formation, VEGF (Example 10); assay type: cell-based; conditions: for change of VEGF stress fiber pattern: 30 minutes before VEGF 25 ng/ml
Experimental: . […] To counter-stain for nuclei, 100 μl of a 3 μM DAPI (4,6-diamidino-2-phenylindole, dilactate (Invitrogen)) solution was added to each well. After 5 minutes, the cells were washed two times with 100 μl PBS.

HUVECs = assay: HUVEC tube formation assay; conditions: 18 hours
[7] = tested on: human renal glomerular microvascular endothelial cells; assay: ECIS resistance (Example 14); conditions: danazol 1 μM alone
Experimental: as §1

[8] = tested on: human renal glomerular microvascular endothelial cells; assay: ECIS resistance (Example 15); conditions: 1 μM
Experimental: Electrical resistance was measured using the electric cell-substrate impedance sensing (ECIS) system (ECISZθ, obtained from Applied Biophysics) with 8-well multiple electrode plates (8W10E). […] The fibronectin solution was removed, and 200 μl of EGM-2 culture medium (Lonza) was added to each well. The plates were connected to the ECISZθ system and were electrically stabilized. The EGM-2 medium was aspirated and replaced with 200 μl of EGM-2 culture medium containing 40,000 passage 6 cells per well. […] The EGM-2 medium was aspirated and replaced with 200 μl of fresh EGM-2 culture medium per well. […] The EGM-2 medium was aspirated and replaced with 200 μl of fresh EGM-2 culture medium without dexamethasone per well. […] Finally, the EGM-2 medium was aspirated and replaced with 200 μl of fresh EGM-2 culture medium without dexamethasone per well. […] Concentrated solutions of the test compounds in HBSS were prepared and placed in the incubator to equilibrate. […] ECIS (resistance) was monitored for 90 hours.

[9] = tested on: human retinal endothelial cells; assay: TER of endothelial cell monolayers (Example 6); conditions: 1.0 μM
Experimental: (§2) Assays were also performed in the same manner using passage 8 human brain endothelial cells and passage 8 human umbilical vein endothelial cells.
(§3) An initial TER measurement was taken for each insert using EVOM^2 voltohmmeter connected to an STX100 electrode (both from World Precision Instruments). […] All data are presented as TER measurements/cm^2 of insert with TER of blank inserts subtracted.

[10] = tested on: human brain endothelial cells; assay: TER of endothelial cell monolayers (Example 6); conditions: 1.0 μM
Experimental: as §2, §3

[11] = tested on: human umbilical vein endothelial cells; assay: TER of endothelial cell monolayers (Example 6); conditions: 1.0 μM
Experimental: as §2, §3

[12] = tested on: human retinal endothelial cells; assay: Actin stress fiber formation, TNFα (Example 9); conditions: 30 minutes
Experimental: Then, the medium was removed and replaced with 200 μl of IMDM medium supplemented with 0.1% fetal bovine serum (all from Lonza), and the cells were cultured under these growth factor and serum starved conditions for one hour to suppress actin polymerization. […] Immediately following addition of these compounds, TNFα (final concentration of 50 ng/ml) was added. […] All wells were then washed two times with 100 μl PBS. The cells were permeabilized using a 0.1% Triton X-100 in PBS for 5 minutes. All wells were then washed two times with 100 μl PBS, and 50 μl of a 1:40 dilution of rhodamine-phalloidin (Invitrogen) in PBS was added to the cells to stain for F-actin and left on the cells for 20 minutes at room temperature. All wells were then washed two times with 100 μl PBS.

[13] = tested on: Retinal endothelial cells; assay: F-actin (phalloidin) staining of endothelial cells; conditions: barrier-enhancing concentrations
Description: Retinal endothelial cells stained with rhodamine conjugated phalloidin.

endothelial cells = assay: TEER across endothelial cell monolayers on transwell inserts; conditions: barrier-enhancing concentrations, within minutes of exposure
Description: TEER measured across monolayers of endothelial cells grown on transwell inserts. Higher resistance equals greater barrier integrity.

CCCCCCCCCCCCC/C=C/[C@@H](O)[C@@H](N)COP(=O)(O)O [S1P, sphingosine-1 phosphate]
start of ECIS increase compared to untreated cells, after treatment ([1]; S1P 1 μM alone): ≤ 15 min | persistence of ECIS increase [1]: about 3 hours | F-actin staining, agent alone [2]: showed actin cortical rings | F-actin staining, agent alone [3]: showed actin cortical rings

C#C[C@]1(O)CC[C@H]2[C@@H]3CCC4=Cc5oncc5C[C@]4(C)[C@H]3CC[C@@]21C [Danazol, 17α-pregna-2,4-dien-20-yno[2,3-d]-isoxazol-17β-ol]
effect on retinal thickness versus baseline BMI ([4]; 10 mg dose): became less significant with increasing baseline BMI | effect on retinal thickness versus baseline BMI ([4]; 30 mg danazol dose): became more significant with increasing baseline BMI | patients with a clinically relevant change in OCT after 12 weeks of treatment ([4]; 30 mg danazol, placebo 2 of 7 patients): 6/7 | Retinal volume compared with placebo ([4]; 15-mg group, P=0.05): decreased | subjects with a significant decrease in retinal thickness (more than 11%) at 12 weeks ([4]; DME patients, oral 15-mg dose (15 mg twice daily), 6 of 7 patients, placebo 29%): 86% | subjects with BCVA improvement of at least 1 category (ICD-9-CM vision loss) ([4]; all patients treated with danazol, placebo 14%): 47% | ocular hypertension ([4]; in vivo): No ocular hypertension was detected | treatment-related adverse events (number) ([4]; in vivo): Three | OD (celltiter proliferation assay) ([5]; 24 hours, 10 μM, nil 0.414±0.06): 0.288±0.037 | OD (celltiter proliferation assay) ([5]; 24 hours, 100 μM, nil 0.414±0.06): 0.162±0.017 | OD (celltiter proliferation assay) ([5]; 48 hours, 1 μM, nil 0.629±0.095): 0.378±0.037 | OD (celltiter proliferation assay) ([5]; 48 hours, 10 μM, nil 0.629±0.095): 0.241±0.012 | OD (celltiter proliferation assay) ([5]; 48 hours, 100 μM, nil 0.629±0.095): 0.19±0.033 | OD (celltiter proliferation assay) ([5]; 72 hours, 0.1 μM, nil 1.113±0.054): 0.798±0.037 | OD (celltiter proliferation assay) ([5]; 72 hours, 1 μM, nil 1.113±0.054): 0.484±0.022 | OD (celltiter proliferation assay) ([5]; 72 hours, 10 μM, nil 1.113±0.054): 0.229±0.016 | OD (celltiter proliferation assay) ([5]; 72 hours, 100 μM, nil 1.113±0.054): 0.156±0.018 | change of VEGF stress fiber pattern ([6]; 0.1 μM): made the stress fibers less pronounced and some diffuse staining appeared | change of VEGF stress fiber pattern ([6]; 1.0 μM): showed fewer thick stress fibers, but focal points were seen on contact surfaces | change of VEGF stress fiber pattern ([6]; 10.0 μM): showed strong stress fiber development with focal points | F-actin staining pattern ([6]; 10.0 μM, no VEGF): there was no longer any diffuse staining, and stress fiber development and focal points were seen | effect on tube formation (HUVECs; 1 μM): no effect | effect on tube formation (HUVECs; 10 μM): no effect | start of ECIS increase compared to untreated cells, after treatment ([1]; 1.0 μM): 90 to 120 min | persistence of ECIS increase [1]: 5 h | period of greatest ECIS increase [7]: 60 to 90 h | persistence of ECIS increase [8]: about 90 hours | start of ECIS increase compared to untreated cells ([8]; medium without dexamethasone): about 3 hours | F-actin staining, danazol alone ([2]; 15 minutes): perinuclear staining | F-actin staining, danazol alone ([2]; 3 hours): diffuse staining throughout the cells with ruffled edges on many of the cells | F-actin staining, danazol alone ([2]; 24 hours): staining similar to untreated controls | F-actin staining, danazol alone ([3]; 15 minutes): perinuclear staining | F-actin staining, danazol alone ([3]; 3 hours): diffuse staining throughout the cells with ruffled edges on many of the cells | F-actin staining, danazol alone ([3]; 24 hours): staining similar to untreated controls | TER ([9]; 0 Hours, per cm^2 of insert, blank subtracted, None 32.3): 21.7 | TER ([9]; 24 Hours, None 96.0): 132.3 | TER ([9]; 48 Hours, None 144.4): 182.3 | TER ([9]; 72 Hours, None 148.0): 217.7 | TER ([9]; 144 Hours, None 219.7): 234.8 | TER ([10]; 0 Hours, per cm^2 of insert, blank subtracted, None 41.4): 32.3 | TER ([10]; 24 Hours, None 115.7): 139.9 | TER ([10]; 48 Hours, None 176.3): 188.4 | TER ([10]; 72 Hours, None 154.0): 149.5 | TER ([10]; 144 Hours, None 151.5): 125.8 | TER ([11]; 0 Hours, per cm^2 of insert, blank subtracted, None 82.3): 70.2 | TER ([11]; 24 Hours, None 217.2): 246.0 | TER ([11]; 48 Hours, None 276.3): 364.1 | TER ([11]; 72 Hours, None 226.8): 270.7 | TER ([11]; 144 Hours, None 227.3): 286.4 | F-actin staining pattern ([12]; 10.0 μM): stress fibers with multiple focal points were detected | stress fiber development with TNFα ([12]; TNFα 50 ng/ml, danazol 0.1 μM or 10 μM, LY294002 10 μM): decreased the number of cells exhibiting stress fiber development with TNFα | F-actin staining ([13]; within minutes of exposure): f-actin cortical ring formation | stress fiber formation upon stimulation ([13]; stimulation with TNF-a or thrombin): counteracted the formation of stress fibers | endothelial barrier function (TEER) (endothelial cells): increases in endothelial barrier function

TNFα
F-actin staining, agent alone [2]: stress fibers were seen at all times | F-actin staining, agent alone [3]: stress fibers were seen at all times | stress fiber development, stimulus alone ([12]; TNFα 50 ng/ml): led to strong stress fiber development with intensely staining focal points

VEGF
stress fiber development, stimulus alone ([6]; VEGF 25 ng/ml, 30 minutes): strong stress fiber development
